Assay results taken from patent US20250041363A1, “COMPOSITIONS AND METHODS FOR TREATMENT OF ALCOHOL USE DISORDER AND ALCOHOL-ASSOCIATED LIVER DISEASE” (UNIVERSITY OF LOUISVILLE RESEARCH FOUNDATION, INC., priority 2023, published 2025).

Columns and labels:
Format in all cases: in vivo, human
[1] = test system: patients with moderately severe acute alcohol associated hepatitis (mAH, MELD <21) with heavy alcohol drinking; assay: Double-blind placebo-controlled trial of LGG: alcohol consumption (monthly alcohol use questionnaire); settings: for #Drinks (Weekly): LGG arm, baseline 34.71 ± 21.99
Excerpt: Conduct a pilot double-blind treatment trial identifying the dual therapeutic role of LGG in patients with comorbid AUD and moderate AH. Evaluate the therapeutic effects of LGG on lowering alcohol consumption over 6 months of treatment compared to placebo. Evaluate the therapeutic outcomes of LGG treatment on liver injury, progression and prognosis compared to placebo. Validate the central role of gut dysfunction in the altered gut-liver and gut-brain response in patients with AUD and moderate AH.
(§1) We analyzed data from 46 participants in a large NIAAA-funded clinical trial performed at 4 medical centers (DASH Consortium). This investigation was a double-blind placebo-controlled study of patients with moderately severe acute alcohol associated hepatitis (mAH, MELD <21) who had pre-existing/ongoing heavy alcohol drinking, with clinical assessments at multiple time points. Data on demographics, drinking, and liver injury were collected and assessed at baseline (BL), 1-month (1-m), 3-months (3-m), and 6-months (6-m). Alcohol consumption was measured by baseline AUDIT, monthly alcohol use questionnaire; and liver injury was assessed by standard liver injury markers. All patients received standard medical management for liver disease and counseling for AUD in the standard of care protocol.

[2] = test system: patients with moderately severe acute alcohol associated hepatitis (mAH, MELD <21) with heavy alcohol drinking; assay: Double-blind placebo-controlled trial of LGG: liver injury, severity and progression markers; settings: for INR / ABIC / MELD / Creatinine / Albumin / AST:ALT / Total Bilirubin / ALT / AST: LGG arm; for INR: baseline 1.453 ± 0.35; for ABIC: baseline 6.3 ± 1.26; for MELD: baseline 17.42 ± 1.79; for Creatinine: baseline 0.64 ± 0.17; for Albumin: baseline 2.7 ± 0.6; for AST:ALT: baseline 2.74 ± 1.54; for Total Bilirubin: baseline 7.2 ± 4.5; for ALT: baseline 73.7 ± 46.7; for AST: baseline 169.0 ± 88.4
Excerpt: as §1

[3] = test system: AUD patients; assay: Pilot study of LGG in AUD patients: heavy drinking markers; settings: AUD patients treated for 6-months, preliminary results

Lactobacillus rhamnosus GG [LGG] was tested, and the “drinking level reached (social or abstinence level)” value ([1]; 6-month assessment, compared to placebo) was < 4 drinks/week, the “change in average drinks/week in LGG arm compared to the placebo arm” value ([1]; 6-month assessment, p=0.0128) was “significant drop” and the “heavy drinking levels after treatment” value ([1]; 6 months of LGG treatment) was “reduced heavy drinking levels to the social drinking or abstinence levels”. For the same substance, the “#Drinks (Weekly)” value ([1]; 1 month, n = 23) was 1.81 ± 3.77, the “#Drinks (Weekly)” value ([1]; 3 month, n = 18) was 2.83 ± 7.71 and the “#Drinks (Weekly)” value ([1]; 6 month, n = 16) was 0.31 ± 1.01. The “lowering of alcohol consumption (average drinking/week) over 6 months within group” value ([1]; over 6 months, p≤0.001 in the LGG group) was “significant, with higher significance”, the “patients with reduction of alcohol drinks/week to the level of social drinking criteria” value ([1]; vs four of the 22 placebo, Fisher's exact test p=0.0012, Likelihood ratio=9.0) was “sixteen of the 24” and the “1 month change in MELD, LGG arm compared to the placebo arm” value ([2]; 1 month, FIG. 2A) was “significantly dropped”. The “1 month change in ABIC score” value ([2]; 1 month, FIG. 2C, p=0.005) was “dropped significantly”, the “drop in the AST:ALT ratio, LGG arm compared to the placebo arm” value ([2]; FIG. 2B) was “significant” and the INR ([2]; 1 month, n = 17) was 1.32 ± 0.3 Unit Score. For the same substance, the ABIC ([2]; 1 month, n = 17) was 5.84 ± 1.2 Unit Score, the MELD ([2]; 1 month, n = 17) was 13.29 ± 4.34 Unit score and the Creatinine ([2]; 1 month, n = 18) was “.81 ± 0.5 mg/dL”. For the same substance, the Albumin ([2]; 1 month, n = 18) was 3.5 ± 0.8 g/dL, the “AST:ALT” value ([2]; 1 month, n = 18) was 1.99 ± 1.2 and the “Total Bilirubin” value ([2]; 1 month, n = 18) was 2.54 ± 1.4 mg/dL. It also gave an ALT ([2]; 1 month, n = 18) of 43.6 ± 44.9 U/L, an AST ([2]; 1 month, n = 18) of 71.72 ± 59.9 U/L and a Creatinine ([2]; 3 month, n = 17) of 0.90 ± 0.4 mg/dL. For the same substance, the INR ([2]; 3 month, n = 17) was 1.31 ± 0.45 Unit Score, the Albumin ([2]; 3 month, n = 17) was 3.6 ± 0.9 g/dL and the “AST:ALT” value ([2]; 3 month, n = 17) was 1.7 ± 0.82. For the same substance, the ABIC ([2]; 3 month, n = 17) was 5.98 ± 1.5 Unit Score, the “Total Bilirubin” value ([2]; 3 month, n = 17) was 3.82 ± 8.3 mg/dL and the MELD ([2]; 3 month, n = 17) was 12.06 ± 7.73 Unit score. The ALT ([2]; 3 month, n = 17) was 33.39 ± 36.27 U/L, the AST ([2]; 3 month, n = 17) was 58.65 ± 51.9 U/L and the “Total Bilirubin” value ([2]; 6 month, n = 15) was 2.8 ± 3.84 mg/dL. For the same substance, the MELD ([2]; 6 month, n = 15) was 12.40 ± 8.4 Unit score, the Creatinine ([2]; 6 month, n = 16) was 0.88 ± 0.35 mg/dL and the INR ([2]; 6 month, n = 16) was 1.41 ± 0.69 Unit Score. For the same substance, the Albumin ([2]; 6 month, n = 16) was 4.01 ± 0.94 g/dL, the “AST:ALT” value ([2]; 6 month, n = 16) was 1.65 ± 0.97 and the ABIC ([2]; 6 month, n = 16) was 6.08 ± 1.46 Unit Score. The ALT ([2]; 6 month, n = 16) was 38.75 ± 32.48 U/L, the AST ([2]; 6 month, n = 16) was 48.75 ± 25.20 U/L and the “biomarkers of liver injury progression and severity” value ([2]; LGG treatment, summary) was “significant reduction”. The heavy drinking markers [3] was “reduction of heavy drinking markers”.
